We go through 7 compounds from ChEMBL document CHEMBL1130089 (J Med Chem, 1997).

Activity calls are given as the source filed them. The calls are words filed in the database; no cut-off is given here.

The target of experiment [1] is T1, Estrogen receptor (Homo sapiens, UniProt Q92731+P03372).
Description: Relative affinity constant for cytosolic estrogen receptor
For experiment [2], the target named is T1, Estrogen receptor. Description: Compound concentration required to induce transcriptional activation in MVLN cells comparable to 50% of 0.1 nM estradiol response. Format: functional, cell-based.
Experiment [3] concerns the target T1, Estrogen receptor. Description: Agonist transcriptional activation in MVLN cells relative to 0.1 nM estradiol. Format: functional, cell-based.
For experiment [4], the target named is T1, Estrogen receptor. This is another data set of the same source.
The target of experiment [5] is T1, Estrogen receptor. Description: Compound concentration required to induce transcriptional activation in MVLN cells equal to 50% of 0.1 nM estradiol response. In kind it is functional, cell-based.
Experiment [6] addresses T1, Estrogen receptor. Description: Irreversible inhibition of [3H]estradiol binding to estrogen receptor; (-) indicates decrease in estradiol binding sites inactivated by the compound. Format: protein assay.

`C=CCC[C@H]1C[C@]2(C)[C@@H](O)CC[C@H]2[C@@H]2CCc3cc(O)ccc3[C@@H]12`: the RAC on Estrogen receptor [1] came to 38.6. For the same compound, the concentration for a half-maximal effect (EC50) (as a rule, the midpoint of the concentration-response curve) on Estrogen receptor [2] was less than 10 nM. Besides, the Activity on Estrogen receptor [3] turned out to be 80%.

With `Cc1ccc(S(=O)(=O)OCCCCCCCCCC[C@H]2C[C@]3(C)[C@@H](O)CC[C@H]3[C@@H]3CCc4cc(O)ccc4[C@@H]23)cc1`, the RAC on Estrogen receptor [1] was 2.59. For the same compound, the Covalent binding at Estrogen receptor [4] was less than 10. Further, on Estrogen receptor [5], the IC50 (as a rule, the concentration at which inhibition is half-maximal) turned out to be 4 nM.

Turning to `C[C@]12C[C@H](CCCCOS(C)(=O)=O)[C@@H]3c4ccc(O)cc4CC[C@H]3[C@@H]1CC[C@@H]2O`, the RAC on Estrogen receptor [1] amounted to 36.8. Also, on Estrogen receptor [6], the Covalent binding entry is “inactive”. Further, the IC50 against Estrogen receptor [5] is on record as 6 nM.

In the case of `C[C@]12C[C@H](CCCCNC(=O)CBr)[C@@H]3c4ccc(O)cc4CC[C@H]3[C@@H]1CC[C@@H]2O`, the RAC on Estrogen receptor [1] was determined as 1.64. Further, the Covalent binding result at Estrogen receptor [6] was “inactive”. The compound also came in with an IC50 on Estrogen receptor [5] of 320 nM.

On Estrogen receptor [1], `C[C@]12C[C@H](CCNC(=O)CBr)[C@@H]3c4ccc(O)cc4CC[C@H]3[C@@H]1CC[C@@H]2O` came in with an RAC of 0.38. For the same compound, the EC50 at Estrogen receptor [2] amounted to 110 nM. At Estrogen receptor [3], the Activity was 90%. Further, the Covalent binding entry on Estrogen receptor [6] is “inactive”.

On Estrogen receptor [1], `C[C@]12C[C@H](CCCCBr)[C@@H]3c4ccc(O)cc4CC[C@H]3[C@@H]1CC[C@@H]2O` yielded an RAC of 11. For the same compound, the Covalent binding entry at Estrogen receptor [6] is “inactive”. In addition, at Estrogen receptor [5], the 50% inhibitory concentration (IC50) is listed as 3 nM.

In the case of `C[C@]12C[C@H](CCOS(C)(=O)=O)[C@@H]3c4ccc(O)cc4CC[C@H]3[C@@H]1CC[C@@H]2O`, the RAC on Estrogen receptor [1] worked out at 8.15. This compound also returned a half-maximal effective concentration (EC50) at Estrogen receptor [2] of 6 nM. This compound yielded an Activity on Estrogen receptor [3] of 95%. Besides, the Covalent binding result on Estrogen receptor [6] is “inactive”.
